Assay [1] concerns the target T1, NLRP3 (Homo sapiens, UniProt Q96P20). Kind of assay: Human whole blood IL-1β release assay (LPS, nigericin, AlphaLisa). Also on record: Plate out 80 μl of whole blood containing 1 μg/ml of LPS; from tissue; host or cells: human whole blood from healthy donors, LPS-primed, nigericin-stimulated. The format is cell-based. The note with it: 1 μg/ml LPS, 3 h compound, 10 μM nigericin 1 hr, IL-1β in supernatant, read-out: Human whole blood IB-1β Assay IC50. The protocol: For systemic delivery, the ability to inhibit NLRP3 when the compounds are present within the bloodstream is of great importance. For this reason, the NLRP3 inhibitory activity of a number of compounds in human whole blood was investigated in accordance with the following protocol.
Human whole blood in Li-heparin tubes was obtained from healthy donors from a volunteer donor panel. • 1. Plate out 80 μl of whole blood containing 1 μg/ml of LPS in 96-well, clear bottom cell culture plate (Corning #3585) • 2. Add 10 μl compound (8 points half-log dilution with 10 μM top dose) or vehicle (DMSO 0.10% FAC) to the appropriate wells • 3. Incubate for 3 hours at 37° C., 5% CO2 • 4. Add 10 μl nigericin (Sigma #N7143) (10 μM FAC) to all wells • 5. Incubate for 1 hr at 37° C., 5% CO2 • 6. At the end of the incubation period, spin plates at 300×g for 5 mins to pellet cells and remove 20 μl of supernatant and add to 96-well v-bottom plates for IL-1β analysis (note: these plates containing the supernatants can be stored at −80° C. to be analysed at a later date) • 7. IL-1β was measured according to the manufacturer protocol (Perkin Elmer-AlphaLisa IL-1 Kit AL220F-5000) • 8. IC50 data is fitted to a non-linear regression equation (log inhibitor vs response-variable slope 4-parameters)
In general terms: Bead proximity is the source of the signal in Alpha formats.

For assay [2], the target named is T1, NLRP3. The assay can be described thus: THP-1 cells pyroptosis assay (LPS priming, nigericin, resazurin readout). The settings on record: 1 μg/ml LPS, 3 h compound, 5 μM nigericin 1 hr. Also on record: Seed THP-1 cells (25,000 cells/well) containing 1.0 μg/ml LPS; host or cells: THP-1 cells, LPS-primed, nigericin-stimulated. The format is cell-based. How it is done:
THP-1 cells (ATCC #TIB-202) were grown in RPMI containing L-glutamine (Gibco #11835) supplemented with 1 mM sodium pyruvate (Sigma #S8636) and penicillin (100 units/ml)/streptomycin (0.1 mg/ml) (Sigma #P4333) in 10% Fetal Bovine Serum (FBS) (Sigma #F0804). The cells were routinely passaged and grown to confluency (˜10^6 cells/ml). On the day of the experiment, THP-1 cells were harvested and resuspended into RPMI medium (without FBS). The cells were then counted and viability (>90%) checked by Trypan blue (Sigma #T8154). Appropriate dilutions were made to give a concentration of 625,000 cells/ml. To this diluted cell solution was added LPS (Sigma #L4524) to give a 1 μg/ml Final Assay Concentration (FAC). 40 μl of the final preparation was aliquoted into each well of a 96-well plate. The plate thus prepared was used for compound screening.
The following method step-by-step assay was followed for compound screening. • 1. Seed THP-1 cells (25,000 cells/well) containing 1.0 μg/ml LPS in 40 μl of RPMI medium (without FBS) in 96-well, black walled, clear bottom cell culture plates coated with poly-D-lysine (VWR #734-0317) • 2. Add 5 μl compound (8 points half-log dilution, with 10 μM top dose) or vehicle (DMSO 0.1% FAC) to the appropriate wells • 3. Incubate for 3 hours at 37° C., 5% CO2 • 4. Add 5 μl nigericin (Sigma #N7143) (FAC 5 μM) to all wells • 5. Incubate for 1 hr at 37° C., 5% CO2 • 6. At the end of the incubation period, spin plates at 300×g for 3 mins and remove supernatant • 7. Then add 50 μl of resazurin (Sigma #R7017) (FAC 100 μM resazurin in RPMI medium without FBS) and incubate plates for a further 1-2 hours at 37° C. and 5% CO2 • 8. Plates were read in an Envision reader at Ex 560 nm and Em 590 nm • 9. IC50 data is fitted to a non-linear regression equation (log inhibitor vs response-variable slope 4-parameters)
For orientation: The colour change of resazurin is a common sign of viable cells or microbes.

This passage reports IC50 results from US20240409553A1, “HETEROCYCLIC NLRP3 INHIBITORS” (Hoffmann-La Roche Inc., priority 2021, published 2024).

Structures can show the parent of a compound that is named as a salt.

Broadly, the IC50 is the concentration that inhibits the measured activity by half.

T1 sequence (Q96P20 whole entry): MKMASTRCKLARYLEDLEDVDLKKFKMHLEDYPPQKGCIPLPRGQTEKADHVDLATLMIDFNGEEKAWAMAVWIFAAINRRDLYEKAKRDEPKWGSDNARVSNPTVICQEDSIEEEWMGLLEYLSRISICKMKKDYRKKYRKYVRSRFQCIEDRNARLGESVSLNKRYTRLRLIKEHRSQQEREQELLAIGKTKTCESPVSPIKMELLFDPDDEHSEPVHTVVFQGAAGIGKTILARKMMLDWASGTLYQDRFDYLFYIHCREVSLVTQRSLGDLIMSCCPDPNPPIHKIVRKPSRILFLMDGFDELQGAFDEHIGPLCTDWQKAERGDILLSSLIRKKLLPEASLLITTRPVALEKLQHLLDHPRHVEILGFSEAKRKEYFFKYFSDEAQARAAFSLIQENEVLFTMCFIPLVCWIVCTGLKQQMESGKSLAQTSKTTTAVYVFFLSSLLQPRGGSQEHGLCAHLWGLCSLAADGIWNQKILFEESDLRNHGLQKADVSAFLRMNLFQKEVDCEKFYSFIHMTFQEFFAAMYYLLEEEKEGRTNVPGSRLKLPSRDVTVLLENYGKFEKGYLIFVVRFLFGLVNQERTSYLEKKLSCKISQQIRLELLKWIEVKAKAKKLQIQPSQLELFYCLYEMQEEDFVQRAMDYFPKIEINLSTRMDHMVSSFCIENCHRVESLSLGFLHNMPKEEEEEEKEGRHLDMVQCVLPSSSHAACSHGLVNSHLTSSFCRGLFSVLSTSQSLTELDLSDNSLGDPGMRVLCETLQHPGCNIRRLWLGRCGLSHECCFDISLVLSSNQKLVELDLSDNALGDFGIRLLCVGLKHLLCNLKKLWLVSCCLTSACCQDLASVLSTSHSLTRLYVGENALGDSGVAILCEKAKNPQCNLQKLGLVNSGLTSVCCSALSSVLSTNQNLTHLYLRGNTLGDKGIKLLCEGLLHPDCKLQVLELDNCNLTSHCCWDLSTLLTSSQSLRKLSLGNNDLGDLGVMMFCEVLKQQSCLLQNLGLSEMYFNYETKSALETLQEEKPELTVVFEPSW

Consider `CCN1CCCC(Nc2nnc(-c3ccc(C(F)(F)F)cc3O)c3sccc23)C1` (racemic) [Example 2, (rac)-2-[4-[(1-Ethyl-3-piperidyl)amino]thieno[2,3-d]pyridazin-7-yl]-5 (trifluoromethyl)phenol; formic acid], for which the IC50 in assay [1] was 0.349 nM; in assay [2], 3.5 nM. Taken in the same sequence, the figures for `CCN1CCCC(Nc2nnc(-c3ccc(C(F)(F)F)cc3)c3sccc23)C1` (racemic) [Example 4, (rac)-N-(1-ethyl-3-piperidyl)-7-[4-(trifluoromethyl)phenyl]thieno[2,3-d]pyridazin-4-amine] were 0.328 nM and 52.4 nM. Regarding `Cn1ncc2c(N[C@H]3C[C@@](C)(O)C3)nnc(-c3ccc(C(F)(F)F)cc3O)c21` [Example 16, 2-[4-[(3-Hydroxy-3-methyl-cyclobutyl)amino]-1-methyl-pyrazolo[3,4-d]pyridazin-7-yl]-5-(trifluoromethyl)phenol], in assay [2], the IC50 turned out to be 362 nM. As to `CCN1CCC[C@@H](Nc2nnc(-c3ccc(OC(F)(F)F)cc3O)c3c2cnn3C)C1` [Example 10, 2-[4-[[(3R)-1-Ethyl-3-piperidyl]amino]-1-methyl-pyrazolo[3,4-d]pyridazin-7-yl]-5-(trifluoromethoxy)phenol; 2,2,2-trifluoroacetic acid], the IC50 in assay [1] is 0.024 nM; in assay [2] it was 2.3 nM.

Regarding `CCN1CCC[C@@H](Nc2nnc(-c3ccc(Cl)cc3O)c3c2cnn3C)C1` [Example 12, 5-Chloro-2-[1-methyl-4-[[(3R)-1-ethyl-3-piperidyl]amino]pyrazolo[3,4-d]pyridazin-7-yl]phenol; 2,2,2-trifluoroacetic acid], the figures for the IC50 in assay [1] and in assay [2] were 0.014 nM and 2.2 nM, respectively. On the same counts, the results for `CCN1CCC[C@@H](Nc2nnc(-c3c(O)cc(C(F)(F)F)cc3F)c3c2cnn3C)C1` [Example 15, 2-[4-[[(3R)-1-Ethyl-3-piperidyl]amino]-1-methyl-pyrazolo[3,4-d]pyridazin-7-yl]-3-fluoro-5-(trifluoromethyl)phenol] are 0.232 nM and 8.6 nM.

On to `CCN1CCCC(Nc2nnc(-c3ccc(C(F)(F)F)cc3)c3ccsc23)C1` (racemic) [Example 3, (rac)-N-(1-ethyl-3-piperidyl)-4-[4-(trifluoromethyl)phenyl]thieno[2,3-d]pyridazin-7-amine], for which the 50% inhibitory concentration (IC50) in assay [1] stood at 0.091 nM; in assay [2], 57.2 nM. Taken in the same sequence, the figures for `CCN1CCC[C@@H](Nc2nnc(-c3c(C)cc(C(F)(F)F)cc3O)c3[nH]ncc23)C1` [Example 14, 2-[4-[[(3R)-1-ethyl-3-piperidyl]amino]-1H-pyrazolo[3,4-d]pyridazin-7-yl]-3-methyl-5-(trifluoromethyl)phenol; 2,2,2-trifluoroacetic acid] were 0.111 nM and 7.8 nM.

In the case of `CCN1CCC[C@@H](Nc2nnc(-c3ccc(C(F)(F)F)cc3O)c3onc(C)c23)C1` [Example 13, 2-[4-[[(3R)-1-Ethyl-3-piperidyl]amino]-3-methyl-isoxazolo[4,5-d]pyridazin-7-yl]-5-(trifluoromethyl)phenol], the IC50 came out at 2.6 nM in assay [1] and 18 nM in assay [2]. Consider `CCN1CCC[C@@H](Nc2nnc(-c3ccc4c(c3O)CCO4)c3c2cnn3C)C1` [Example 17, 5-[4-[[(3R)-1-Ethyl-3-piperidyl]amino]-1-methyl-pyrazolo[3,4-d]pyridazin-7-yl]-2,3-dihydrobenzofuran-4-ol], for which the figures for the IC50 in assay [1] and in assay [2] were 0.015 nM and 3.6 nM, respectively. Taken in the same sequence, the figures for `CCN1CCC[C@@H](Nc2nnc(-c3ccc(C(F)(F)F)cc3O)c3c2ccn3C)C1` [Example 5-TFA, 2-[4-[[(3R)-1-ethyl-3-piperidyl]amino]-1-methyl-pyrrolo[2,3-d]pyridazin-7-yl]-5-(trifluoromethyl)phenol; 2,2,2-trifluoroacetic acid] were 0.028 nM and 12.4 nM.

Turning to `CCN1CCC[C@@H](Nc2nnc(-c3ccc4c(c3O)CC4)c3c2cnn3C)C1` [Example 18, 3-[4-[[(3R)-1-Ethyl-3-piperidyl]amino]-1-methyl-pyrazolo[3,4-d]pyridazin-7-yl]bicyclo[4.2.0]octa-1(6),2,4-trien-2-ol], the figures for the 50% inhibitory concentration (IC50) in assay [1] and in assay [2] were 0.033 nM and 2.2 nM, respectively. On to `Cn1ncc2c(N[C@@H]3CCCC[C@H]3O)nnc(-c3ccc(C(F)(F)F)cc3O)c21` [Example 11, 2-[4-[[(1R,2R)-2-Hydroxycyclohexyl]amino]-1-methyl-pyrazolo[3,4-d]pyridazin-7-yl]-5-(trifluoromethyl)phenol; 2,2,2-trifluoroacetic acid], for which the half-inhibitory concentration (IC50) in assay [2] came to 76 nM. Turning to `CCN1CCCC(Nc2nnc(-c3ccc(C(F)(F)F)cc3O)c3ccsc23)C1` (racemic) [Example 1, (rac)-2-[7-[(1-Ethyl-3-piperidyl)amino]thieno[2,3-d]pyridazin-4-yl]-5(trifluoromethyl)phenol; formic acid], the results for the IC50 in assay [1] and in assay [2] were 0.088 nM and 1.6 nM, respectively. On the same counts, the results for `CCN1CCC[C@@H](Nc2nnc(-c3ccc(C(F)(F)F)cc3O)c3c2cnn3C)C1` [Example 6, 2-[4-[[(3R)-1-Ethyl-3-piperidyl]amino]-1-methyl-pyrazolo[3,4-d]pyridazin-7-yl]-5-(trifluoromethyl)phenol; 2,2,2-trifluoroacetic acid] are 0.028 nM and 3.5 nM. With `CCN1CCC[C@@H](Nc2nnc(-c3ccc(C(F)(F)F)cc3O)c3c2ccn3C)C1` [Example 5-HCl, 2-[4-[[(3R)-1-Ethyl-3-piperidyl]amino]-1-methyl-pyrrolo[2,3-d]pyridazin-7-yl]-5-(trifluoromethyl)phenol; hydrochloride], in assay [2], the half-maximal inhibitory concentration (IC50) was determined as 11.6 nM. With `CCN1CCC[C@@H](Nc2nnc(-c3ccc(C(F)(F)F)cc3O)c3cnn(C)c23)C1` [Example 9, 2-[7-[[(3R)-1-Ethyl-3-piperidyl]amino]-1-methyl-pyrazolo[3,4-d]pyridazin-4-yl]-5-(trifluoromethyl)phenol], the IC50 in assay [1] turned out to be 0.217 nM; in assay [2] it was 2.7 nM. Taken in the same sequence, the figures for `CCN1CCC[C@@H](Nc2nnc(-c3ccc(C(F)(F)F)cc3O)c3occc23)C1` [Example 7, 2-[4-[[(3R)-1-ethyl-3-piperidyl]amino]furo[2,3-d]pyridazin-7-yl]-5-(trifluoromethyl)phenol] were 0.592 nM and 9.1 nM. Consider `CCN1C[C@@H](O)C[C@@H](Nc2nnc(-c3ccc4c(c3O)CCO4)c3c2cnn3C)C1` [Example 19, (3S,5R)-1-Ethyl-5-[[7-(4-hydroxy-2,3-dihydrobenzofuran-5-yl)-1-methyl-pyrazolo[3,4-d]pyridazin-4-yl]amino]piperidin-3-ol], for which the IC50 in assay [1] was determined as 0.3 nM; in assay [2], 46.6 nM.
